Legend:
MOLT-3 [1] = test: Antitumor activity against human MOLT3 cells in absence of Penicillin-G-amidase after 72 hrs by XTT assay; assay type: functional, cell-based; settings: MOLT-3, 72 h
MOLT-3 [2] = test: Antitumor activity against human MOLT3 cells in presence of Penicillin-G-amidase after 72 hrs by XTT assay; assay type: functional, cell-based; settings: MOLT-3, 72 h

`O=C(Cc1ccccc1)Nc1ccc(COC(=O)Nc2c(COC(=O)NC(Cc3ccc(N(CCCl)CCCl)cc3)C(=O)O)cc(COC(=O)NC(C(=O)O)c3ccc(N(CCCl)CCCl)cc3)cc2COC(=O)NC(Cc2ccc(N(CCCl)CCCl)cc2)C(=O)O)cc1` (stereo not given) showed an IC50 (MOLT-3 [1]) of 100 µM and an IC50 (MOLT-3 [2]) of 0.5 µM.

For `CN(CCN(C)C(=O)Oc1c(COC(=O)NC(Cc2ccc(N(CCCl)CCCl)cc2)C(=O)O)cc(COC(=O)NC(C(=O)O)c2ccc(N(CCCl)CCCl)cc2)cc1COC(=O)NC(Cc1ccc(N(CCCl)CCCl)cc1)C(=O)O)C(=O)OCc1ccc(NC(=O)Cc2ccccc2)cc1` (stereo not given), the IC50 (MOLT-3 [1]) was 100 µM and the IC50 (MOLT-3 [2]) was 6 µM.

In the case of `N[C@@H](Cc1ccc(N(CCCl)CCCl)cc1)C(=O)O` [MELPHALAN], the IC50 (MOLT-3 [2]) is reported as 0.3 µM.
